Test results: publication PMC12703938, “Positive modulation of sigma-1 receptor: a new weapon to mitigate disease progression in amyotrophic lateral sclerosis” (Translational Neurodegeneration, 2025)
Counter-ions that a name gives are not always drawn.

System: T1, sigma-1 receptor (S1R)
T1 construct: gene SIGMAR1; S1R-GFP expressed in CHO cells; with BiP
Assay: S1R/BiP dissociation assay in S1R-GFP CHO cells (GFP-Trap, BiP ELISA)
Format: cell-based

Compound | IC50 [nM]
C[C@]12CC[C@H](O)CC1=CC[C@@H]1[C@@H]2CC[C@]2(C)C(=O)CC[C@@H]12 [DHEA] | 1170
